What follows are molecules tested against human JAK1 (a.a. 837-1142) (assay: In vitro JAK kinase assay (HTRF, phosphorylation of a biotinylated peptide), JAK1). Conditions: measured at 1 mM ATP; JAK2 IC50 / JAK1 IC50.
Type: biochemical
Method in brief: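 N-terminal His-tagged catalytic domains, baculovirus-expressed in insect cells, phosphorylated a biotinylated peptide for 1 hr at room temperature. EDTA stop was followed by SA-APC and Eu-Py20 antibody for 40 minutes, with phosphopeptide read by HTRF.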

Row | Compound | IC50 Ratio JAK2/JAK1
1 | N#CCC1(n2ccc(-c3ncnc4[nH]ccc34)c2)CN(C2CCN(C(=O)c3c(F)ccc(F)c3F)CC2)C1 [Example 270, {3-[3-(7H-pyrrolo[2,3-d]pyrimidin-4-yl)-1H-pyrrol-1-yl]-1-[1-(2,3,6-trifluorobenzoyl)piperidin-4-yl]azetidin-3-yl}acetonitrile] | 6.1
2 | N#CCC1(n2ccc(-c3ncnc4[nH]ccc34)c2)CN(C2CCN(C(=O)c3cccs3)CC2)C1 [Example 271, {3-[3-(7H-pyrrolo[2,3-d]pyrimidin-4-yl)-1H-pyrrol-1-yl]-1-[1-(2-thienylcarbonyl)piperidin-4-yl]azetidin-3-yl}acetonitrile] | 7.8
3 | N#CCC1(n2ccc(-c3ncnc4[nH]ccc34)c2)CN(C2CCN(C(=O)c3ccc(C(F)(F)F)cc3F)CC2)C1 [Example 272, {1-{1-[2-fluoro-4-(trifluoromethyl)benzoyl]piperidin-4-yl}-3-[3-(7H-pyrrolo[2,3-d]pyrimidin-4-yl)-1H-pyrrol-1-yl]azetidin-3-yl}acetonitrile] | 6.5
4 | N#CCC1(n2ccc(-c3ncnc4[nH]ccc34)c2)CN(C2CCN(C(=O)c3cc(C(F)(F)F)ccc3F)CC2)C1 [Example 273, {1-{1-[2-fluoro-5-(trifluoromethyl)benzoyl]piperidin-4-yl}-3-[3-(7H-pyrrolo[2,3-d]pyrimidin-4-yl)-1H-pyrrol-1-yl]azetidin-3-yl}acetonitrile] | 4.4
5 | N#CCC1(n2ccc(-c3ncnc4[nH]ccc34)c2)CN(C2CCN(C(=O)c3cc(F)cc(C(F)(F)F)c3)CC2)C1 [Example 274, {1-{1-[3-fluoro-5-(trifluoromethyl)benzoyl]piperidin-4-yl}-3-[3-(7H-pyrrolo[2,3-d]pyrimidin-4-yl)-1H-pyrrol-1-yl]azetidin-3-yl}acetonitrile] | 9.0
6 | N#CCC1(n2ccc(-c3ncnc4[nH]ccc34)c2)CN(C2CCN(C(=O)c3ccc(F)c(C(F)(F)F)c3)CC2)C1 [Example 275, {1-{1-[4-fluoro-3-(trifluoromethyl)benzoyl]piperidin-4-yl}-3-[3-(7H-pyrrolo[2,3-d]pyrimidin-4-yl)-1H-pyrrol-1-yl]azetidin-3-yl}acetonitrile] | 3.1
7 | N#CCC1(n2ccc(-c3ncnc4[nH]ccc34)c2)CN(C2CCN(C(=O)c3cccc(F)c3F)CC2)C1 [Example 276, {1-[1-(2,3-difluorobenzoyl)piperidin-4-yl]-3-[3-(7H-pyrrolo[2,3-d]pyrimidin-4-yl)-1H-pyrrol-1-yl]azetidin-3-yl}acetonitrile] | 4.0
8 | N#CCC1(n2ccc(-c3ncnc4[nH]ccc34)c2)CN(C2CCN(C(=O)c3ccc(F)c(F)c3)CC2)C1 [Example 277, {1-[1-(3,4-difluorobenzoyl)piperidin-4-yl]-3-[3-(7H-pyrrolo[2,3-d]pyrimidin-4-yl)-1H-pyrrol-1-yl]azetidin-3-yl}acetonitrile] | 9.8
9 | N#CCC1(n2ccc(-c3ncnc4[nH]ccc34)c2)CN(C2CCN(C(=O)c3cc(F)ccc3F)CC2)C1 [Example 278, {1-[1-(2,5-difluorobenzoyl)piperidin-4-yl]-3-[3-(7H-pyrrolo[2,3-d]pyrimidin-4-yl)-1H-pyrrol-1-yl]azetidin-3-yl}acetonitrile] | 5.6
10 | N#CCC1(n2ccc(-c3ncnc4[nH]ccc34)c2)CN(C2CCN(C(=O)c3c(F)cccc3F)CC2)C1 [Example 279, {1-[1-(2,6-difluorobenzoyl)piperidin-4-yl]-3-[3-(7H-pyrrolo[2,3-d]pyrimidin-4-yl)-1H-pyrrol-1-yl]azetidin-3-yl}acetonitrile] | 4.1
11 | N#CCC1(n2ccc(-c3ncnc4[nH]ccc34)c2)CN(C2CCN(C(=O)c3ccc(F)c(F)c3F)CC2)C1 [Example 280, {3-[3-(7H-pyrrolo[2,3-d]pyrimidin-4-yl)-1H-pyrrol-1-yl]-1-[1-(2,3,4-trifluorobenzoyl)piperidin-4-yl]azetidin-3-yl}acetonitrile] | 7.5
12 | N#CCC1(n2ccc(-c3ncnc4[nH]ccc34)c2)CN(C2CCN(C(=O)c3cccc(OC(F)(F)F)c3F)CC2)C1 [Example 281, {1-{1-[2-fluoro-3-(trifluoromethoxy)benzoyl]piperidin-4-yl}-3-[3-(7H-pyrrolo[2,3-d]pyrimidin-4-yl)-1H-pyrrol-1-yl]azetidin-3-yl}acetonitrile] | 10.0
13 | N#CCC1(n2ccc(-c3ncnc4[nH]ccc34)c2)CN(C2CCN(C(=O)c3ccc(O)c(C(F)(F)F)c3)CC2)C1 [Example 282, {1-{1-[4-hydroxy-3-(trifluoromethyl)benzoyl]piperidin-4-yl}-3-[3-(7H-pyrrolo[2,3-d]pyrimidin-4-yl)-1H-pyrrol-1-yl]azetidin-3-yl}acetonitrile] | 3.4
14 | COc1ncccc1NC(=O)N1CCC(N2CC(CC#N)(n3ccc(-c4ncnc5[nH]ccc45)c3)C2)CC1 [Example 284, 4-{3-(cyanomethyl)-3-[3-(7H-pyrrolo[2,3-d]pyrimidin-4-yl)-1H-pyrrol-1-yl]azetidin-1-yl}-N-(2-methoxypyridin-3-yl)piperidine-1-carboxamide] | 5.8
15 | Cc1nc(C(F)(F)F)ccc1NC(=O)N1CCC(N2CC(CC#N)(n3ccc(-c4ncnc5[nH]ccc45)c3)C2)CC1 [Example 285, 4-{3-(cyanomethyl)-3-[3-(7H-pyrrolo[2,3-d]pyrimidin-4-yl)-1H-pyrrol-1-yl]azetidin-1-yl}-N-[2-methyl-6-(trifluoromethyl)pyridin-3-yl]piperidine-1-carboxamide] | 5.7
16 | N#CCC1(n2ccc(-c3ncnc4[nH]ccc34)c2)CN(C2CCN(C(=O)Nc3ccccc3C#N)CC2)C1 [Example 287, 4-{3-(cyanomethyl)-3-[3-(7H-pyrrolo[2,3-d]pyrimidin-4-yl)-1H-pyrrol-1-yl]azetidin-1-yl}-N-(2-cyanophenyl)piperidine-1-carboxamide] | 6.7
17 | N#CCC1(n2ccc(-c3ncnc4[nH]ccc34)c2)CN(C2CCN(C(=O)Nc3ncccc3C(F)(F)F)CC2)C1 [Example 290, 4-{3-(cyanomethyl)-3-[3-(7H-pyrrolo[2,3-d]pyrimidin-4-yl)-1H-pyrrol-1-yl]azetidin-1-yl}-N-[3-(trifluoromethyl)pyridin-2-yl]piperidine-1-carboxamide] | 3.9

More lines, now with the values ahead:

Row | IC50 Ratio JAK2/JAK1 | Compound
18 | 9.0 | COc1ccccc1NC(=O)N1CCC(N2CC(CC#N)(n3ccc(-c4ncnc5[nH]ccc45)c3)C2)CC1 [Example 288, 4-{3-(cyanomethyl)-3-[3-(7H-pyrrolo[2,3-d]pyrimidin-4-yl)-1H-pyrrol-1-yl]azetidin-1-yl}-N-(2-methoxyphenyl)piperidine-1-carboxamide]
19 | 9.1 | N#CCC1(n2ccc(-c3ncnc4[nH]ccc34)c2)CN(C2CCN(C(=O)Nc3ncccc3F)CC2)C1 [Example 292, 4-{3-(cyanomethyl)-3-[3-(7H-pyrrolo[2,3-d]pyrimidin-4-yl)-1H-pyrrol-1-yl]azetidin-1-yl}-N-(3-fluoropyridin-2-yl)piperidine-1-carboxamide]
20 | 3.4 | N#CCC1(n2ccc(-c3ncnc4[nH]ccc34)c2)CN(C2CCN(C(=O)Nc3ccc(Cl)cc3C#N)CC2)C1 [Example 293, 4-{3-(cyanomethyl)-3-[3-(7H-pyrrolo[2,3-d]pyrimidin-4-yl)-1H-pyrrol-1-yl]azetidin-1-yl}-N-(4-chloro-2-cyanophenyl)piperidine-1-carboxamide]
21 | 5.1 | N#CCC1(n2cc(-c3ccnc4[nH]ccc34)cn2)CN(C2CCN(C(=O)c3ccc(C#N)cc3F)CC2)C1 [Example 295, 4-[(4-{3-(cyanomethyl)-3-[4-(1H-pyrrolo[2,3-b]pyridin-4-yl)-1H-pyrazol-1-yl]azetidin-1-yl}piperidin-1-yl)cabonyl]-3-fluorobenzonitrile]
22 | 4.6 | N#CCC1(n2cc(-c3ccnc4[nH]ccc34)cn2)CN(C2CCN(C(=O)c3ccc(O)c(F)c3)CC2)C1 [Example 296]
23 | 10.0 | N#CCC1(n2cc(-c3ccnc4[nH]ccc34)cn2)CN(C2CCN(C(=O)c3ccc(O)cc3F)CC2)C1 [Example 297, {1-[1-(2-fluoro-4-hydroxybenzoyl)piperidin-4-yl]-3-[4-(1H-pyrrolo[2,3-b]pyridin-4-yl)-1H-pyrazol-1-yl]azetidin-3-yl}acetonitrile]
24 | 2.8 | N#CCC1(n2cc(-c3ccnc4[nH]ccc34)cn2)CN(C2CCN(C(=O)c3cc(C(F)(F)F)ncc3Cl)CC2)C1 [Example 298, {1-{1-[5-chloro-2-(trifluoromethyl)isonicotinoyl]piperidin-4-yl}-3-[4-(1H-pyrrolo[2,3-b]pyridin-4-yl)-1H-pyrazol-1-yl]azetidin-3-yl}acetonitrile]
25 | 6.6 | N#CCC1(n2cc(-c3ccnc4[nH]ccc34)cn2)CN(C2CCN(C(=O)c3ccnc(C(F)(F)F)n3)CC2)C1 [Example 299, [3-[4-(1H-pyrrolo[2,3-b]pyridin-4-yl)-1H-pyrazol-1-yl]-1-(1-{[2-(trifluoromethyl)pyrimidin-4-yl]carbonyl}piperidin-4-yl)azetidin-3-yl]acetonitrile]
26 | 3.3 | N#CCC1(n2cc(-c3ccnc4[nH]ccc34)cn2)CN(C2CCN(C(=O)c3cnc(C(F)(F)F)cn3)CC2)C1 [Example 301, [3-[4-(1H-pyrrolo[2,3-b]pyridin-4-yl)-1H-pyrazol-1-yl]-1-(1-{[5-(trifluoromethyl)pyrazin-2-yl]carbonyl}piperidin-4-yl)azetidin-3-yl]acetonitrile]
27 | 6.5 | N#CCC1(n2cc(-c3ccnc4[nH]ccc34)cn2)CN(C2CCN(C(=O)C3CCC(F)(F)CC3)CC2)C1 [Example 302, {1-{1-[(4,4-difluorocyclohexyl)carbonyl]piperidin-4-yl}-3-[4-(1H-pyrrolo[2,3-b]pyridin-4-yl)-1H-pyrazol-1-yl]azetidin-3-yl}acetonitrile]
28 | 16.0 | N#CCC1(n2cc(-c3ccnc4[nH]ccc34)cn2)CN(C2CCN(C(=O)Nc3ccc(F)cc3Cl)CC2)C1 [Example 305, N-(2-chloro-4-fluorophenyl)-4-{3-(cyanomethyl)-3-[4-(1H-pyrrolo[2,3-b]pyridin-4-yl)-1H-pyrazol-1-yl]azetidin-1-yl}piperidine-1-carboxamide]

— patent publication US10695337B2, “Piperidin-4-yl azetidine derivatives as JAK1 inhibitors” (Incyte Corporation, priority 2010, dated 2020)
